Assay results published in patent US7902170B2, “Influenza virus binding, sialylated oligosaccharide substance and use thereof” (priority 2000, dated 2011).
Entries after “also recorded” stand apart in the source; their conditions may differ.

The substances below were run on avian virus A/duck/Czechoslovakia/56, H4N6.
Assay type: binding, avian influenza A virus (H4N6)
For sulfatide, the “Binding of avian influenza virus HRP conjugate to glycolipid on TLC plate” value (“Binding” for short) was “probably unspecific interaction”. With “NeuAcα3Galβ4GlcNAcβ3Galβ4GlcβCer [S-3-PG]” the “Binding” value was “binding; also recorded: bound”. In the case of NeuAcα3Galβ4GlcβCer [GM3], the “Binding” value is reported as “not observed”. In the case of “NeuAcα3Galβ3GalNAcβ4(NeuAcα3)Galβ4GlcβCer [GD1a]”, the “Binding” value is reported as “binding”. With “NeuAcα3Galβ3GalNAcβ4(NeuAcα8NeuAcα3)Galβ4GlcβCer [GT1b]” the “Binding” value was “binding”.
